Assay results published in patent US11261183B2, “Sulfoximine glycosidase inhibitors” (Asceneuron SA, priority 2016, dated 2022).

What was measured:
[1] = Protein binding in mice plasma using Rapid Equilibrium Dialysis; format: in vitro ADME, CD1 mice; conditions: male, CD1, mouse, plasma, pH 7.4, CD1 mouse plasma, 37° C.
Procedure: Example B04: Protein binding in mice plasma using Rapid Equilibrium Dialysis
• CD1 Mice Plasma: pooled male, K2-EDTA ([…]2, Bioreclammation, USA • Phosphate Buffered Saline (1×PBS), pH 7.4, 100 mM (Sigma, Cat No. P4417) • RED inserts (Pierce, Cat No. 9006, 8 kDa MWCO) • Sample Analysis: LC-MS/MS Methods • Preparation of DMSO Stock Solution
From 20 mM DMSO stock solutions of reference and test compounds, 1 mM DMSO intermediate working solutions are prepared. From 1 mM intermediate working solutions, 100 μM DMSO working solutions are prepared. • Sample Preparation Procedure:
Selected plasma is brought from −20° C. to 37° C. using water bath before its use. Test solution is prepared by adding the DMSO working solution of the reference or test compound (2 μL; 100 μM) to the selected plasma (198 μL). Spiked plasma (200 μl) is transferred to sample compartment of RED insert placed in the teflon plate. 350 μl of 1×PBS is added in the buffer compartment of RED insert. The teflon plate is covered with sealing mat and agitated at 37° C. for 5 hours at 500 RPM in a Thermomixer. After incubation time, an aliquot of plasma (50 μl) from sample compartment is mixed with blank 1×PBS (50 μl). Similarly, an aliquot of buffer (50 μl) from buffer compartment is mixed with blank plasma (50 μl). Quenching solution (200 μL, acetonitrile containing internal standard tolbutamide (0.5 μg/mL)) is added and the resulting solutions are mixed using a vortex mixer and centrifuged (Eppendorf 5415, 13792 g). Supernatants are analyzed using a Mass Spectrometer. The sample (supernatant fraction, 5 μL) is injected into the LC-MS/MS instrument. • Chromatographic Conditions: LC-MS/MS: API 4000 LC-MS/MS Software: Analyst Version 1.6.1 Column Phenomenex Synergy 30*4.6*5μ Column Oven: 40° C. Mode: ESI Positive Injection volume: 5 μl Flow Rate: […] Buffer: 0.1% Formic acid in Water Method: Isocratic Method/Gradient Composition: A) 0.1% Formic acid in Water B) 0.1% Formic acid in Methanol
After the concentration of free drug and total drug has been determined by LCMS/MS, percent plasma protein binding can be calculated as follows:
[formula] Following this protocol, % fraction unbound in plasma from different species can be also measured.

[2] = target: Human O-GlcNAcase (His-Tagged hOGA) (Homo sapiens (Human), UniProt O60502); assay: Human O-GlcNAcase enzyme inhibition assay; format: biochemical; conditions: His-Tagged hOGA 20 nM, FL-GlcNAc 10 μM, 60 min, room temperature, pH 6.5; read-out: Enzymatic OGA IC50
Procedure: Example B01: Human O-GlcNAcase enzyme inhibition assay
5 μl of the appropriate concentration of a solution of inhibitor in McIlvaine's Buffer (pH 6.5) in 2% DMSO (for a dose response curve calculation) is added into each well of a 384-well plate (Greiner, 781900). Then, 20 nM of His-Tagged hOGA and 10 μM of FL-GlcNAc (Fluorescein mono-beta-D-(2-deoxy-2-N-acetyl) glucopyranoside; Marker Gene Technologies Inc, M1485) were added to the 384-well plate for a final volume of 20 μl. After incubation for 60 min at room temperature, the reaction was terminated by the addition of 10 μL of stop buffer (200 mM glycine, pH 10.75).

Human O-GlcNAcase (His-Tagged hOGA), sequence (O60502 whole entry): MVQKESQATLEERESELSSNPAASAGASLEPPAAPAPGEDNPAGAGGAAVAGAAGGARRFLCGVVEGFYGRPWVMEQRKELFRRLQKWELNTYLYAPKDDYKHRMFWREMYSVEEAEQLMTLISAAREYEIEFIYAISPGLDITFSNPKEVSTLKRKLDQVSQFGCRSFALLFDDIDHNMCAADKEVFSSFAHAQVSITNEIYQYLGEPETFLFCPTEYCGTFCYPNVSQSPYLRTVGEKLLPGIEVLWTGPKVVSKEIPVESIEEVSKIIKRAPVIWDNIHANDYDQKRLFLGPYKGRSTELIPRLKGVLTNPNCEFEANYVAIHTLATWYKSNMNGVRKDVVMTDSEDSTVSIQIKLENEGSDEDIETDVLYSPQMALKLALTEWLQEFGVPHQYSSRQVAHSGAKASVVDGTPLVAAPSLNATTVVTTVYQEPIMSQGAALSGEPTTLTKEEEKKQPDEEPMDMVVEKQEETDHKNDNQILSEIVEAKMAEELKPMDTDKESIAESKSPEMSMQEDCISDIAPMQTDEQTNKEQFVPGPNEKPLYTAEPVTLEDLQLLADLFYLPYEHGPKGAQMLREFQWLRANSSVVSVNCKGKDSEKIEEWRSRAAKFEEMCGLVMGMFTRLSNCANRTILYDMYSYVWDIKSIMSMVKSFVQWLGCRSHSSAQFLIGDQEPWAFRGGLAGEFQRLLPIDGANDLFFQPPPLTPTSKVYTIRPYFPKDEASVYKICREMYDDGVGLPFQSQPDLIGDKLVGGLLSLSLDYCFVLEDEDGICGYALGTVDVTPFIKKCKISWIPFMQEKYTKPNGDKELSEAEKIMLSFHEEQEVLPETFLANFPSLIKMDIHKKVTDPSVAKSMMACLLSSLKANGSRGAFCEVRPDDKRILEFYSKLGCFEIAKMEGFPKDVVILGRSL

With `CC(c1ccc2c(c1)OCCC2)N1CCN(c2ncc(S(C)(=N)=O)cn2)CC1` (racemic) [Example 21, (2-(4-(1-(chroman-7-yl)ethyl)piperazin-1-yl)pyrimidin-5-yl)(imino)(methyl)-λ^6-sulfanone] the fraction unbound at 5 h, 1 µM [1] was 0.222 and the IC50 [2] was 50 to 200 nM.
`CN=S(C)(=O)c1cnc(N2CCN(C(C)c3ccc4c(c3)OCC4)CC2)nc1` (racemic) [Example 8, (2-(4-(1-(2,3-dihydrobenzofuran-6-yl)ethyl)piperazin-1-yl)pyrimidin-5-yl)(methyl)(methylimino)-λ^6-sulfanone] showed a fraction unbound at 5 h, 1 µM [1] of 0.234 and an IC50 [2] of less than 50 nM.
Molecule `Cc1nc2cc(C(C)N3CCN(c4ncc(S(C)(=N)=O)cn4)CC3)ccc2s1` (single isomer, unassigned) [Example 51] has a fraction unbound at 5 h, 1 µM [1] of 0.0838 and an IC50 [2] of less than 50 nM.
`CN=S(C)(=O)c1ccc(N2CCN(C(C)c3ccc4c(c3)OCC4)CC2)nc1` (single isomer, unassigned) [Example 20, (6-(4-((S)-1-(2,3-dihydrobenzofuran-6-yl)ethyl)piperazin-1-yl)pyridin-3-yl)(methyl)(methylimino)-λ^6-sulfanone or (6-(4-((R)-1-(2,3-dihydrobenzofuran-6-yl)ethyl)piperazin-1-yl)pyridin-3-yl)(methyl)(methylimino)-λ^6-sulfanone] showed a fraction unbound at 5 h, 1 µM [1] of 0.223 and an IC50 [2] of less than 50 nM.
In the case of `Cc1nc2cc(C(C)N3CCN(c4ncc5c(n4)CCS(=N)(=O)C5)CC3)ccc2s1` (racemic) [Example 58, 6-imino-2-(4-(1-(2-methylbenzo[d]thiazol-5-yl)ethyl)piperazin-1-yl)-5,6,7,8-tetrahydro-6λ^4-thiopyrano[4,3-d]pyrimidine 6-oxide], the IC50 [2] is reported as less than 50 nM.
`Cc1nc2cc(C(C)N3CCN(c4ncc(S(C)(=N)=O)cn4)CC3)ccc2s1` (single isomer, unassigned) [Example 52] showed an IC50 [2] of 200 to 1000 nM.
In the case of `CC(C)N=S(C)(=O)c1cnc(N2CCN(C(C)c3ccc4scnc4c3)CC2)nc1` (racemic) [Example 28, (2-(4-(1-(benzo[d]thiazol-5-yl)ethyl)piperazin-1-yl)pyrimidin-5-yl)(isopropylimino)(methyl)-λ^6-sulfanone], the IC50 [2] is reported as 50 to 200 nM.
With `CC(c1ccc2c(c1)OCC2)N1CCN(c2ncc(C(=O)N=S(C)(C)=O)cn2)CC1` (racemic) [Example 10, 2-(4-(1-(2,3-dihydrobenzofuran-6-yl)ethyl)piperazin-1-yl)-N-(dimethyl(oxo)-λ^6-sulfanylidene)pyrimidine-5-carboxamide] the fraction unbound at 5 h, 1 µM [1] was 0.139 and the IC50 [2] was less than 50 nM.
For `CC(c1ccc2scnc2c1)N1CCN(c2ccc(S(C)(=N)=O)cc2)CC1` (racemic) [Example 33, (4-(4-(1-(benzo[d]thiazol-5-yl)ethyl)piperazin-1-yl)phenyl)(imino)(methyl)-λ^6-sulfanone], the fraction unbound at 5 h, 1 µM [1] was 0.132 and the IC50 [2] was 50 to 200 nM.
For `CN=S(C)(=O)c1cnc(N2CCN(C(C)c3ccc4sc(C)nc4c3)CC2)nc1` (racemic) [Example 45, methyl(2-(4-(1-(2-methylbenzo[d]thiazol-5-yl)ethyl)piperazin-1-yl)pyrimidin-5-yl)(methylimino)-λ^6-sulfanone], the fraction unbound at 5 h, 1 µM [1] was 0.214 and the IC50 [2] was less than 50 nM.
`CC(c1ccc2c(c1)OCC2)N1CCN(c2ncc(S(C)(=N)=O)cn2)CC1` (single isomer, unassigned) [Example 16, (2-(4-((S)-1-(2,3-dihydrobenzofuran-6-yl)ethyl)piperazin-1-yl)pyrimidin-5-yl)(imino)(methyl)-λ^6-sulfanone or (2-(4-((R)-1-(2,3-dihydrobenzofuran-6-yl)ethyl)piperazin-1-yl)pyrimidin-5-yl)(imino)(methyl)-λ^6-sulfanone] showed an IC50 [2] of less than 50 nM.
`CC(C)N=S(C)(=O)c1cnc(N2CCN(C(C)c3ccc4c(c3)OCC4)CC2)nc1` (single isomer, unassigned) [Example 19] gave an IC50 [2] of less than 50 nM.
Work on `CC(c1ccc2c(c1)OCC2)N1CCN(c2ncc(S(C)(=N)=O)cn2)CC1` (single isomer, unassigned) [Example 13] yielded an IC50 [2] of 200 to 1000 nM.
For `CCN=S(C)(=O)c1cnc(N2CCN(C(C)c3ccc4c(c3)OCC4)CC2)nc1` (single isomer, unassigned) [Example 18], the IC50 [2] was less than 50 nM.
Molecule `Cc1nc2cc(C(C)N3CCN(c4ccc(S(C)(=N)=O)cc4)CC3)ccc2s1` (racemic) [Example 50, imino(methyl)(4-(4-(1-(2-methylbenzo[d]thiazol-5-yl)ethyl)piperazin-1-yl)phenyl)-λ^6-sulfanone] has an IC50 [2] of less than 50 nM.
In the case of `CC(c1ccc2nccnc2c1)N1CCN(c2ncc(S(C)(=N)=O)cn2)CC1` (racemic) [Example 57, imino(methyl)(2-(4-(1-(quinoxalin-6-yl)ethyl)piperazin-1-yl)pyrimidin-5-yl)-λ^6-sulfanone], the IC50 [2] is reported as 50 to 200 nM.
With `CC(c1ccc2scnc2c1)N1CCN(c2ncc(S(C)(=N)=O)cn2)CC1` (single isomer, unassigned) [Example 41] the IC50 [2] was 1000 to 10000 nM.
In the case of `Cc1nc2cc(C(C)N3CCN(c4ncc(S(C)(=N)=O)cn4)CC3)ccc2s1` (single isomer, unassigned) [Example 54], the IC50 [2] is reported as 1000 to 10000 nM.
Molecule `CC(c1ccc2scnc2c1)N1CCN(c2ncc(S(C)(=N)=O)cn2)CC1` (single isomer, unassigned) [Example 38, (R)-(2-(4-(1-(benzo[d]thiazol-5-yl)ethyl)piperazin-1-yl)pyrimidin-5-yl)(imino)(methyl)-λ^6-sulfanone or (S)-(2-(4-(1-(benzo[d]thiazol-5-yl)ethyl)piperazin-1-yl)pyrimidin-5-yl)(imino)(methyl)-λ^6-sulfanone] has an IC50 [2] of 50 to 200 nM.
`CC(c1ccc2scnc2c1)N1CCN(c2ncc(S(C)(=N)=O)cn2)CC1` (single isomer, unassigned) [Example 39, (R)-(2-(4-(1-(benzo[d]thiazol-5-yl)ethyl)piperazin-1-yl)pyrimidin-5-yl)(imino)(methyl)-λ^6-sulfanone or (S)-(2-(4-(1-(benzo[d]thiazol-5-yl)ethyl)piperazin-1-yl)pyrimidin-5-yl)(imino)(methyl)-λ^6-sulfanone] showed an IC50 [2] of less than 50 nM.
In the case of `CC(c1ccc2scnc2c1)N1CCN(c2ncc(S(C)(=N)=O)cn2)CC1` (single isomer, unassigned) [Example 40], the IC50 [2] is reported as 1000 to 10000 nM.
With `CCCS(=N)(=O)c1cnc(N2CCN(C(C)c3ccc4sc(C)nc4c3)CC2)nc1` (racemic) [Example 44, Imino(2-(4-(1-(2-methylbenzo[d]thiazol-5-yl)ethyl)piperazin-1-yl)pyrimidin-5-yl)(propyl)-λ^6-sulfanone] the IC50 [2] was less than 50 nM.
Work on `CC1Cc2ccc(C(C)N3CCN(c4ncc(S(C)(=N)=O)cn4)CC3)cc2O1` (racemic) [Example 2, Imino(methyl)(2-(4-(1-(2-methyl-2,3-dihydrobenzofuran-6-yl)ethyl)piperazin-1-yl)pyrimidin-5-yl)-λ^6-sulfanone] yielded a fraction unbound at 5 h, 1 µM [1] of 0.222.
For `CC(c1ccc2c(c1)OCC2)N1CCN(c2ncc(S(C)(=N)=O)cn2)CC1` (single isomer, unassigned) [Example 15], the IC50 [2] was 1000 to 10000 nM.
Work on `CC(c1ccc2c(c1)OCC2)N1CCN(c2ncnc3c2CS(=N)(=O)C3)CC1` (stereo not shown) [Example 60, 4-(4-(1-(2,3-dihydrobenzofuran-6-yl)ethyl)piperazin-1-yl)-6-imino-6,7-dihydro-5H-6δ^4-thieno[3,4-d]pyrimidine 6-oxide] yielded a fraction unbound at 5 h, 1 µM [1] of 0.0779.
With `CCS(=N)(=O)c1cnc(N2CCN(C(C)c3ccc4sc(C)nc4c3)CC2)nc1` (racemic) [Example 43, ethyl(imino)(2-(4-(1-(2-methylbenzo[d]thiazol-5-yl)ethyl)piperazin-1-yl)pyrimidin-5-yl)-λ^6-sulfanone] the IC50 [2] was less than 50 nM.
For `CN=S(C)(=O)c1ccc(N2CCN(C(C)c3ccc4scnc4c3)CC2)nc1` (racemic) [Example 30, (6-(4-(1-(benzo[d]thiazol-5-yl)ethyl)piperazin-1-yl)pyridin-3-yl)(methyl)(methylimino)-λ^6-sulfanone], the IC50 [2] was 50 to 200 nM.
